Consider two substances from patent US5195966A, “Treatment of mastitis and applicator therefor” (Diversey Limited, priority 1990, dated 1993).

For series [1] the following is noted: cited from earlier work.
The next series deals with rats. Description: LD50 of Clorpactin WCS-90 in a milk vehicle by the oral route. The class given is in vivo. The conditions noted are these: sterilized, γ-irradiated (2.5 megarads).
The subject of series [2] is E. coli. Description: Minimum inhibitory concentration against E. coli. The class given is cell-based. The conditions noted are these: E. coli (intestinal flora).
The test system of another series is St. faecalis. The experiment in a line: Minimum inhibitory concentration against St. faecalis. The class given is cell-based. The following applies: St. faecalis (intestinal flora).
Series [3] deals with starters Streptococcus thermophilus and Lactobacillus bulgarius. The experiment in a line: Inhibitory effect on yoghurt starter cultures (lactic acid by titratable acidity). The class given is cell-based. The method, then: The inhibitory effect of "Clorpactin" on starter cultures was also investigated: Raw whole milk was pasteurized and spiked with various concentrations of freshly prepared "Clorpactin". These samples were inoculated with the starters Streptococcus thermophilus and Lactobacillus bulgarius contained in natural yoghurt, incubated at 37°/5 hours and the percent lactic acid determined by titratable acidity (BSI, 1741:1963).

Series [4] relates to Staph. coagulase positive. The experiment in a line: Clinical cure of mastitis, Staph. coagulase positive. The class given is in vivo, dairy cattle. The conditions noted are these: 40 ml 1.25% w/v, 6 infusions at successive milkings. The source says: (§1) Efficacy studies used half herds on a positive control and half herds on the experimental treatment. The protocol agreed was that herds were randomly split into two halves by number. Odd numbered cows received experimental treatment and even numbered cows received the positive control. Any animal sufficiently badly affected (i.e. systematically affected) should be the subject of a visit from a veterinary surgeon and was not included in the trial on either side.
(§2) Milk samples of each infected quarter were sent to the MMB Laboratories for cell count and bacterial identification as follows:.
(§3) A clinical cure is defined as the udder returning to normal function.
(§4) 40 ml of 1.25% w/v solution of sodium oxychlorosene infused 6 times at 6 milkings.
(§5) 1 full tube of 100 mg procaine penicillin/100 mg dihydro-streptomycin sulphate infused 6 times at 6 milkings. Five measurements can be made from the figures available:
(§6) Odd numbered animals. Sodium oxychlorosene. 40 ml 1.25% w/v. 6 times at successive milkings.
(§7) Procaine penicillin/Dihydrostreptomycin sulphate. 6 times at 6 milkings.

Series [5] deals with E. coli. The experiment in a line: Clinical cure of mastitis, E. coli. The class given is in vivo, dairy cattle. The following applies: of 4 cases; 40 ml 1.25% w/v, 6 infusions at successive milkings.
Description: as §1, §2, §3, §4, §5, §6, §7

The test system of another series is Str. dysgalactiae. Description: Clinical cure of mastitis, Str. dysgalactiae. The conditions noted are these: 40 ml 1.25% w/v, 6 infusions at successive milkings. The class given is in vivo, dairy cattle.
Description: as §1, §2, §3, §4, §5, §6, §7

For the next series, the system named is Str. uberis. The experiment in a line: Clinical cure of mastitis, Str. uberis. The class given is in vivo, dairy cattle. The conditions noted are these: 40 ml 1.25% w/v, 6 infusions at successive milkings.
Description: as §1, §2, §3, §4, §5, §6, §7

In a further series the test system is Str. agalactiae. The experiment in a line: Clinical cure of mastitis, Str. agalactiae. The class given is in vivo, dairy cattle. The conditions noted are these: 40 ml 1.25% w/v, 6 infusions at successive milkings.
Description: as §1, §2, §3, §4, §5, §6, §7

The next series concerns mastitis. The experiment in a line: Clinical efficacy in mastitis, overall and number of infusions to effect a clinical cure. The class given is in vivo, dairy cattle.
Description: as §1, §2, §3, §4, §5
(§8) (The variations in n, the number of determinations from which the mean cell count is calculated, are due to various factors, such as samples leaking in transit, faster decomposition of samples in hot weather, especially where no inhibitor substances are present (i.e. sodium oxychlorosene). Mean number of infusions to effect a clinical cure where a clinical cure is affected after up to 6 infusions.

In series [6] the test system is somatic cell counts in milk. The experiment in a line: Mean somatic cell counts in milk during and after completed treatments. The class given is in vivo, dairy cattle.
Description: as §2
Somatic cell counts in milk from individual quarters is an indication of the state of health of that quarter. The higher the cell count, the greater is the degree of infection or the irritant effect in the udder.
The mean cell counts for all experimental milk samples submitted to the MMB are shown below. It is not always possible to obtain a cell count if the milk is obviously mastitic or if the sample deteriorates in transit. One problem with sodium oxychlorosene samples is that, due to lack of inhibitory effects, samples in transit may deteriorate quite rapidly. Samples containing antibiotic inhibitors are generally better protected from microbiological deterioration in transit. Some samples, when specifically needed for cell counts and not for causative organism assay, have been protected by the addition of formalin. This was carried out, for instance, when the irritancy studies were carried out.
as §8

The subject of a further series is dairy cattle. The following applies: bovine, in vivo.
The conditions of series [7]: in vivo.
Description: The completed work, which takes the form of a series of individual studies, monitors the level of residues in milk from cows that were subjected to six infusions of a single normal strength "Clorpactin" dose (0.5 grams in 40 mls of physiological saline), both during infusion and for a series of milkings after the treatment was complete.
Analysis of the milk samples from each cow was by ion-pair reverse-phase chromatography. Calculation of the "Clorpactin" residues was, in the case of Study 01, by the peak height method, as the milk used for the standards was obtained from a different source from the cows under test (consequent detection limit 7 ppm). In studies, 02, 03 and 04 as the standards were made in milk obtained from the cow under test a few days prior to treatment, the peak area method was used (detection limit 1 ppm). […] Treatments:
Two mid-lactation cows (Fresian) were selected for the trial, with each being subjected to one course of treatment with the ""Clorpactin WCS-90". Treatments comprised six infusions, following six successive milkings, of "Clorpactin" at a single normal strength dose (0.5 gms per 40 mls of physiological saline)
Two healthy mid-lactation cows (Fresian) were selected for this trial, with again each cow being subjected to a single course of treatment with "Clorpactin WCS-90" Study 02 differed from Study 01 in that a sample of the milk from the quarters under test was removed from the cow a few days prior to treatment, to enable accurate standards to be prepared.
Three healthy mid-lactation cows (Fresian) were selected for the trial, with each being subjected to one course of treatment with the "Clorpactin WCS-90", to each of the four quarters of the animals.
The milk from all four quarters was monitored for residues during and after treatment, with the standards being made up in milk obtained from the quarters a few days before the trial.
Two mastitic cows, used in the efficacy study, were monitored for residues in the milk from a point where the milk appeared to be normal. It was not possible to evaluate the severely mastitic milk as no standards may be prepared to evaluate milk that is constantly changing in composition. The standards used in this case were made in milk obtained some 4 days after the last sample was taken.
Means cited at the foot of the Table are calculated taking the <7 ppm and <1 ppm results as 7 and 1, respectively.
The conditions of series [8]: bovine, in vivo.
Description: An experimental study was conducted to determine if any absorption occurs between quarters during a course of treatment with "Clorpactin WCS-90".
The method used was to infuse two of the quarters of a healthy cow with a double normal strength course of treatment and to monitor each of the four quarters for "Clorpactin" residues, both during and after the trial. This with the assumption that if the material were being transferred between quarters by any mechanism it would be detected in the untreated quarters.
Analysis of the milk samples from each quarter was by ion-pair reverse-phase chromatography.
Calculation of the "Clorpactin" residues was by peak area with the milk used for the standards being prepared from milk obtained several days before treatment.
Two of the quarters were each infused with a double normal dose of "Clorpactin WCS-90" (2×0.5 g in 40 mls of physiological saline) on six consecutive occasions following 6 milkings.
The milk from all four quarters was monitored for residues both during and after the trial to determine if any transfer to untreated quarters had occurred.
The first infusion occurred after Milking No. 1, with the consequence that Milking 1 represents the background.

Take (mon)oxychlorosene: the hydrolysis in water result in series [1] (after dissolving) is listed as “hydrolyses rapidly”. Besides, in series [1], the dissolution in water result is given as “dissolves slowly in water”.
For orientation: LD50 means the dose at which mortality reaches 50%. A lower LD50 goes with greater toxicity. sodium oxychlorosene returned an LD50 in the series with rats of over 5000 mg/kg. Further, the minimum inhibitory concentration result in the series on E. coli [2] and in the series on St. faecalis was “approximately 2000 ppm” throughout. Moreover, in series [3] (Clorpactin-spiked milk up to 0.01% (100 ppm), 37°/5 hours, control also about 0.9%), the percent lactic acid entry is on record as “about 0.9 % lactic acid”. In addition, the “effect on yoghurt starter culture activity” value in series [3] (conclusion) is reported as “no adverse affect on yoghurt starter culture activity”. For the same substance, in [3] (levels of up to 0.01% (100 ppm) in pasteurized milk, 37°/5 hours), the “effect on lactic acid production” value was “no effect on lactic acid production”. The “% Clinical Cures” value is 90% in [4] (72 cases), 70% in the series with Str. dysgalactiae (10 cases), 76% with Str. uberis (25 cases) and 82% in the series on Str. agalactiae (51 cases). Besides, the “Clinical Cures” value in [4] (of 72 cases) turned out to be 65; with E. coli [5], 3; with Str. dysgalactiae (of 10 cases), 7; with Str. uberis (of 25 cases) it was 19; in the series with Str. agalactiae (of 51 cases), 41. For the same substance, in the series with mastitis (1.25% w/v, 95% confidence level), the “clinical cure versus the conventional antibiotic” value is recorded as “superior to the conventional antibiotic”. In the series on mastitis (72 degrees of freedom, t = 3.098), the “significance (p) of mean number of infusions, Experimental vs Positive control” value is under 0.01. In addition, the “Mean number of infusions to effect a clinical cure” value with mastitis (clinical cure effected after up to 6 infusions, n = 70 (sodium oxychlorosene 1.25% w/v, On1 1.61), n = 30 (antibiotic, On1 1.10)) was 4.11. In addition, the “Mean Cell Counts” value in series [6] (day 0) stood at 6870; in [6] (day 1), 6092; in series [6] (day 2), 4912; in series [6] (day 3) it was 4845; in series [6] (day 4), 3468; in series [6] (day 5), 2018. The results for the “Mean Cell Counts” value in [6] (day 12) and in [6] (day 19) were 1576 and 965, respectively. For the same substance, the adverse effects entry in the series on dairy cattle was “No adverse effects were found”. For the same substance, the “10× mean residue level after withdrawal period” value in series [7] was 31 ppm. In series [7], the “levels detected after treatment is complete” value is reported as “quickly drops off to background”. In series [7], the “milking by which background has been achieved” value was at most 8. In addition, the “withdrawal after treatment supported by the data” value in [7] is “one milking withdrawal”. Also, the “Clorpactin in the untreated quarters” value in [8] was “No evidence of any "Clorpactin" was detected in the untreated quarters”. Besides, the “milking number by which level is clear” value in [8] is given as at most 8. For the same substance, the “transference to the untreated quarters” value in [8] is listed as “no mechanism of transference”.
